Assay [1] concerns OCI-LY7 cells. Put plainly: Cell viability assay (CellTiter-Glo, 72 h). Format: cell-based. The conditions noted are these: Homo sapiens, read-out: Results from inhibition of OCI-LY7 cells (IC50). As for the experimental part:
An in vitro cell viability assay was conducted using the compounds of Examples 1-50 following the steps below:
1. After OCI-LY7 cells were recovered, they were cultured at 37° C., 5% CO2, and 95% humidity.
2. For the compounds of Examples 1-50, 8 compound solutions at different concentrations were prepared, respectively. 50 μL of the compound solution at each concentration was added to a 96-well black plate.
3. The cell concentration was adjusted to about 30,000 cells/mL. 100 μL of cell suspension was added to the 96-well plate, and mixed well. The final cell density was about 3,000 cells/well.
4. The 96-well plate was placed at 37° C., 5% CO2, and 95% humidity for 72 h.
5. The cell survival rate was measured by the method of CellTiter-Glo® Luminescent Cell Viability Assay (Promega, Cat #G7572). The fluorescence data were read on a microplate reader (EnVision™, a multi-function microplate detector, PerkinElmer).
6. The obtained fluorescence data were analyzed using GraphPad Prism software. The cell survival rate was calculated for each example compound at each concentration, and the IC50 interval of each example compound was obtained.
In general terms: In ATP-based viability assays light output follows the ATP content of the culture.

Assay [2] addresses Btk (Homo sapiens, UniProt Q06187). In words: Analysis of in vitro inhibitory activity of Btk (cell-free TR-FRET kinase assay). Format: biochemical. The conditions noted are these: for IC50: cell-free TR-FRET, ATP at Km, 1 h, read-out: Efficacy (Btk IC50); for inhibitory effects against Btk (in words): summary of Table 1 efficacy data. As for the experimental part:
In a cell-free kinase assay, the method described below or a similar method was used to determine the half inhibitory concentration (IC50) of the compound of the present invention on Btk.
Btk kinase activity was determined using a time-resolved fluorescence resonance energy transfer (TR-FRET) methodology. Measurements were performed in a reaction volume of 50 μL using 96-well assay plates. […] The reaction was quenched by the addition of 1.2 equivalents of EDTA (relative to divalent cation) in […] of 1× Lance buffer (Perkin-Elmer). Streptavidin-APC (Perkin-Elmer) and Eu-labeled p-Tyr100 antibody (Perkin-Elmer) in 1× Lance buffer were added in a volume of 25 μL to give final concentrations of 100 nM and 2.5 nM, respectively. The mixture was allowed to incubate for 1 h. The TR-FRET signal was measured on a multimode plate reader at an excitation wavelength (λEx) of 330 nm and detection wavelengths (λEm) of 615 and 665 nm. The activity was determined by the ratio of fluorescence at 665 nm to that at 615 nm. For each compound, the enzyme activity was measured in the presence of different concentrations of the compound. Negative control reactions were performed in the absence of inhibitor in replicates of six, and two no-enzyme controls were used to determine baseline fluorescence levels. IC50 was obtained by fitting using the program Batch Ki (Kuzmic, et al. (2000), Anal. Biochem. 286:45-50).
The Example compounds 1-50 of the present invention were synthesized according to the above Synthetic Schemes I to VII. In the analysis of in vitro inhibitory activity of Btk, the IC50 values of the Example compounds 1-50 of the present invention were determined. The IC50 values are given according to the interval of the IC50 value, where “+++” means IC50<100 nM; “++” means 100 nM≤IC50<1000 nM; and “+” means 1000 nM≤IC50<10000 nM.

Chain of Btk (Q06187 whole entry): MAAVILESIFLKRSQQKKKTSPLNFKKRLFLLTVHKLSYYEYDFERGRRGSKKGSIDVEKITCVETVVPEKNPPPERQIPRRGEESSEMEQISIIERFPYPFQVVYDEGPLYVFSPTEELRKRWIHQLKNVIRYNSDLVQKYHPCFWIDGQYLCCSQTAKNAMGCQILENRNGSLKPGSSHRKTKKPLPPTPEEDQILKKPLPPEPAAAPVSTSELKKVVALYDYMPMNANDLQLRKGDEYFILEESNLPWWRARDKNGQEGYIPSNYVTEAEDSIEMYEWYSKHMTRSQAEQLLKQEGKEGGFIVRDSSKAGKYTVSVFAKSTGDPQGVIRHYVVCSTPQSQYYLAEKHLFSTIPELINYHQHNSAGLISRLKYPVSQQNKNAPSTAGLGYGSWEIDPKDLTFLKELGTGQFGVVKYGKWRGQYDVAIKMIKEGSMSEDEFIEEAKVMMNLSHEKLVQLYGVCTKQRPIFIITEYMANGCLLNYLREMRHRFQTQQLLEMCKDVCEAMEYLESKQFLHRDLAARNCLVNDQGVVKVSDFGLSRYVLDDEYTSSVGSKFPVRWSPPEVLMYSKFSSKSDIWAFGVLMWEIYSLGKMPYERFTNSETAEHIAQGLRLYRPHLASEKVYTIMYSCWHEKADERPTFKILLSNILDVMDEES

What is called IC50 is the concentration needed to halve the response being measured. As for `Cc1ccn(-c2cccc(C(F)(F)F)c2)c(=O)c1-c1ccc2nc(Nc3cccc(N)c3)ncc2c1` [Example 12], the IC50 is below 0.5 µM in assay [1] and 1 to 10 µM in assay [2].

Regarding `C=CC(=O)Nc1cc(Nc2ncc3cc(-c4c(C)cc[nH]c4=O)ccc3n2)ccc1OC` [Example 36], the IC50 was below 0.5 µM in assay [1] and below 0.1 µM in assay [2].

As to `C=CC(=O)N(CC)c1cccc(Nc2ncc3cc(-c4c(C)ccn(C(=O)OCC)c4=O)ccc3n2)c1` [Example 28], the IC50 in assay [1] is below 0.5 µM; in assay [2], below 0.1 µM.

In the case of `Cc1cc[nH]c(=O)c1-c1ccc2nc(Nc3cccc(NC(=O)/C=C/CN4CCOCC4)c3)ncc2c1` [Example 8], the IC50 in assay [1] is below 0.5 µM; in assay [2], below 0.1 µM.

As to `Cc1cc[nH]c(=O)c1-c1ccc2nc(Nc3cccc(NC(=O)CCN(C)C)c3)ncc2c1` [Example 11], the values for the IC50 in assay [1] and in assay [2] were below 0.5 µM and below 0.1 µM, respectively.

Regarding `[2H]C([2H])([2H])C([2H])([2H])N(C(=O)C=C)c1cccc(Nc2ncc3cc(-c4c(C)cc[nH]c4=O)ccc3n2)c1` [Example 47], the IC50 was below 0.5 µM in assay [1] and below 0.1 µM in assay [2].

Take `C=CC(=O)Nc1cccc(Nc2ncc3cc(-c4c(C)ccn(-c5cccc(C(F)(F)F)c5)c4=O)ccc3n2)c1` [Example 13]: the values for the IC50 in assay [1] and in assay [2] were below 0.5 µM and 0.1 to 1 µM, respectively.

With `C=CC(=O)N(CCOC)c1cccc(Nc2ncc3cc(-c4c(C)cc[nH]c4=O)ccc3n2)c1` [Example 38], the IC50 in assay [1] was below 0.5 µM; in assay [2], below 0.1 µM. In addition, the “inhibitory effects against Btk (in words)” value (from here on “inhibitory effects”) in assay [2] is “particularly excellent inhibitory effects”.

`C=C(F)C(=O)N(CC)c1cccc(Nc2ncc3cc(-c4c(C)cc[nH]c4=O)ccc3n2)c1` [Example 35]: the figures for the IC50 in assay [1] and in assay [2] were below 0.5 µM and below 0.1 µM, respectively.

Consider `C=CC(=O)N(CC)c1cccc(Nc2ncc3cc(-c4c(C)ccn(C(C)=O)c4=O)ccc3n2)c1` [Example 29], for which the results for the IC50 in assay [1] and in assay [2] were 0.5 to 2.5 µM and 0.1 to 1 µM, respectively.

Regarding `Cc1ccn(C)c(=O)c1-c1ccc2nc(Nc3cccc(N)c3)ncc2c1` [Example 16], the figures for the IC50 in assay [1] and in assay [2] were 0.5 to 2.5 µM and 1 to 10 µM, respectively.

On to `CCN(C(=O)/C=C/CN(C)C)c1cccc(Nc2ncc3cc(-c4c(C)cc[nH]c4=O)ccc3n2)c1` [Example 34], for which the IC50 is 0.5 to 2.5 µM in assay [1] and below 0.1 µM in assay [2]. In addition, the “inhibitory effects” value in assay [2] was “particularly excellent inhibitory effects”.

Take `Cc1cc[nH]c(=O)c1-c1ccc2nc(Nc3cccc(N(C)C(=O)/C=C/CN(C)C)c3)ncc2c1` [Example 24]: the IC50 in assay [1] was below 0.5 µM; in assay [2], below 0.1 µM. For the same compound, in assay [2], the “inhibitory effects” value is recorded as “particularly excellent inhibitory effects”.

Regarding `C=CC(=O)Nc1cccc(Nc2ncc3cc(-c4c(C)cc[nH]c4=O)ccc3n2)c1` [Example 2], in assay [1], the IC50 is below 0.5 µM. For the same compound, in assay [2], the IC50 was below 0.1 µM and the “inhibitory effects” value is recorded as “particularly excellent inhibitory effects”.

In the case of `[2H]C([2H])=C([2H])C(=O)N(C)c1cccc(Nc2ncc3cc(-c4c(C)cc[nH]c4=O)ccc3n2)c1` [Example 45], the concentration for half-maximal inhibition (IC50) is below 0.5 µM in assay [1] and below 0.1 µM in assay [2]. In assay [2], the “inhibitory effects” value is “particularly excellent inhibitory effects”.

On to `Cc1cc[nH]c(=O)c1-c1ccc2nc(Nc3cccc(N)c3)ncc2c1` [Example 1], for which the IC50 in assay [1] is below 0.5 µM; in assay [2], below 0.1 µM.

`C=CC(=O)N1CCC[C@H]1C(=O)Nc1cccc(Nc2ncc3cc(-c4c(C)cc[nH]c4=O)ccc3n2)c1` [Example 21]: the IC50 was below 0.5 µM in assay [1] and below 0.1 µM in assay [2].

With `Cc1cc[nH]c(=O)c1-c1ccc2nc(Nc3cccc(NC(=O)[C@@H]4CCCN4)c3)ncc2c1` [Example 20], the IC50 is 0.5 to 2.5 µM in assay [1] and 0.1 to 1 µM in assay [2].

`Cc1cc[nH]c(=O)c1-c1ccc2nc(Nc3cccc(NC(=O)[C@@H](N)C(C)C)c3)ncc2c1` [Example 18]: the figures for the IC50 in assay [1] and in assay [2] were below 0.5 µM and below 0.1 µM, respectively.

`CCC(=O)Nc1cccc(Nc2ncc3cc(-c4c(C)cc[nH]c4=O)ccc3n2)c1` [Example 3]: the IC50 is below 0.5 µM in assay [1] and below 0.1 µM in assay [2].

As for `C=CC(=O)N(CC)c1cc(Nc2ncc3cc(-c4c(C)cc[nH]c4=O)ccc3n2)ccc1F` [Example 39], the IC50 was 0.5 to 2.5 µM in assay [1] and below 0.1 µM in assay [2].

Consider `C=CC(=O)N(CC)c1cccc(Nc2ncc3cc(-c4c(C)ccn(C(=O)OCc5ccccc5)c4=O)ccc3n2)c1` [Example 31], for which the IC50 was below 0.5 µM in assay [1] and below 0.1 µM in assay [2].

As to `C=CC(=O)N[C@H](C(=O)Nc1cccc(Nc2ncc3cc(-c4c(C)cc[nH]c4=O)ccc3n2)c1)C(C)C` [Example 19], the IC50 in assay [1] is below 0.5 µM. For the same compound, in assay [2], the IC50 is below 0.1 µM and the “inhibitory effects” value was “particularly excellent inhibitory effects”.

For the compound `C=CC(=O)N(CCN(C)C)c1cccc(Nc2ncc3cc(-c4c(C)cc[nH]c4=O)ccc3n2)c1` [Example 43], the IC50 was at least 2.5 µM in assay [1] and below 0.1 µM in assay [2].

On to `[2H]C([2H])=C([2H])C(=O)N(c1cccc(Nc2ncc3cc(-c4c(C)cc[nH]c4=O)ccc3n2)c1)C([2H])([2H])[2H]` [Example 46], for which the IC50 was below 0.5 µM in assay [1] and below 0.1 µM in assay [2]. Besides, in assay [2], the “inhibitory effects” value was “particularly excellent inhibitory effects”.

With `Cc1cc[nH]c(=O)c1-c1ccc2nc(Nc3cccc(NC(=O)/C=C/CN(C)C)c3)ncc2c1` [Example 5], the IC50 in assay [1] was below 0.5 µM. Also, in assay [2], the IC50 is below 0.1 µM and the “inhibitory effects” value is given as “particularly excellent inhibitory effects”.

Turning to `C=CC(=O)N(CC)c1cc(Nc2ncc3cc(-c4c(C)cc[nH]c4=O)ccc3n2)ccc1C` [Example 40], the IC50 was 0.5 to 2.5 µM in assay [1] and below 0.1 µM in assay [2].

As for `Cc1cc[nH]c(=O)c1-c1ccc2nc(Nc3cccc(NC(=O)/C=C/CN4CCCCC4)c3)ncc2c1` [Example 7], the IC50 was below 0.5 µM in assay [1] and below 0.1 µM in assay [2].

As to `C=CC(=O)Nc1cccc(Nc2ncc3cc(-c4c(C)ccn(-c5ccc(N6CCOCC6)cc5)c4=O)ccc3n2)c1` [Example 15], the IC50 in assay [1] was below 0.5 µM; in assay [2] it was 0.1 to 1 µM.

Consider `CCNc1cccc(Nc2ncc3cc(-c4c(C)cc[nH]c4=O)ccc3n2)c1` [Example 25], for which the IC50 in assay [1] was below 0.5 µM; in assay [2] it was below 0.1 µM.

For the compound `Cc1cc[nH]c(=O)c1-c1ccc2nc(Nc3cccc(NC(=O)CN)c3)ncc2c1` [Example 9], the IC50 is 0.5 to 2.5 µM in assay [1] and below 0.1 µM in assay [2].

Regarding `C=CC(=O)Nc1cc(Nc2ncc3cc(-c4c(C)cc[nH]c4=O)ccc3n2)ccc1OCCOC` [Example 6], the IC50 in assay [1] is below 0.5 µM; in assay [2], below 0.1 µM.

As to `CNc1cccc(Nc2ncc3cc(-c4c(C)cc[nH]c4=O)ccc3n2)c1` [Example 22], the IC50 is below 0.5 µM in assay [1] and below 0.1 µM in assay [2].

With `Cc1ccn(-c2ccc(N3CCOCC3)cc2)c(=O)c1-c1ccc2nc(Nc3cccc(N)c3)ncc2c1` [Example 14], the IC50 is below 0.5 µM in assay [1] and 0.1 to 1 µM in assay [2].

Take `C=CC(=O)N1CCOc2ccc(Nc3ncc4cc(-c5c(C)cc[nH]c5=O)ccc4n3)cc21` [Example 42]: the IC50 is 0.5 to 2.5 µM in assay [1] and below 0.1 µM in assay [2].

On to `[2H]C([2H])([2H])N(C(=O)C=C)c1cccc(Nc2ncc3cc(-c4c(C)cc[nH]c4=O)ccc3n2)c1` [Example 44], for which the IC50 was below 0.5 µM in assay [1] and below 0.1 µM in assay [2]. In addition, the “inhibitory effects” value in assay [2] is given as “particularly excellent inhibitory effects”.

For the compound `C=CC(=O)Nc1cccc(Nc2ncc3cc(-c4c(C)ccn(C)c4=O)ccc3n2)c1` [Example 17], the IC50 fell in the range of 0.5 to 2.5 µM in assay [1] and 0.1 to 1 µM in assay [2].

With `C=CC(=O)N(c1cccc(Nc2ncc3cc(-c4c(C)cc[nH]c4=O)ccc3n2)c1)C(C)C` [Example 27], the IC50 was below 0.5 µM in assay [1] and below 0.1 µM in assay [2].

For the origin of these results see patent US20220017484A1, “INHIBITOR OF BRUTON TYROSINE KINASE” (BEIJING RECIPROCAPHARMACEUTICALS CO., LTD., priority 2018, published 2022).
